Reference: patent publication US20260049092A1, “ANTIBACTERIAL COMPOUNDS” (Blacksmith Medicines, Inc., priority 2022, published 2026)
In brackets after ≈: the same amount, converted by molar mass. Where two headings read alike, the source gives them in different places.

Tests used:
Assay in all cases: Bacterial susceptibility testing (MIC, broth microdilution)
Type in all cases: cell-based
K. pneumoniae ATCC13883 = details: Klebsiella pneumoniae
Summary of the method: (§1)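 CLSI broth microdilution was run in cation-adjusted Mueller-Hinton broth with an inoculum of 3×10^5–7×10^5 CFU/mL and 2-fold compound dilutions. Plates were incubated in ambient air at 35° C for 18-24 h. MIC was the lowest concentration preventing visible growth (OD600 nm<0.05).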

P. aeruginosa PAO1 = details: Pseudomonas aeruginosa
Summary of the method: as §1

P. aeruginosa ATCC27853 = details: Pseudomonas aeruginosa
Summary of the method: as §1

E. coli ATCC25922 = details: Escherichia coli
Summary of the method: as §1

[1] = ATCC13883, broth microdilution, cation adjusted Mueller-Hinton Broth, 35° C., 18-24 h, read-out: K. pneumoniae ATCC13883 MIC
[2] = PAO1, broth microdilution, cation adjusted Mueller-Hinton Broth, 35° C., 18-24 h, read-out: P. aeruginosa PAO1 MIC
[3] = ATCC27853, broth microdilution, cation adjusted Mueller-Hinton Broth, 35° C., 18-24 h, read-out: P. aeruginosa ATCC27853 MIC
[4] = ATCC25922, broth microdilution, cation adjusted Mueller-Hinton Broth, 35° C., 18-24 h, read-out: E. coli ATCC25922 MIC
[5] = ATCC13883, read-out: K. pneumoniae ATCC13883 MIC
[6] = PAO1, read-out: P. aeruginosa PAO1 MIC
[7] = ATCC27853, read-out: P. aeruginosa ATCC27853 MIC
[8] = ATCC25922, read-out: E. coli ATCC25922 MIC

| SMILES | MIC (K. pneumoniae ATCC13883; [1]) [µg/mL] | MIC (P. aeruginosa PAO1; [2]) [µg/mL] | MIC (P. aeruginosa ATCC27853; [3]) [µg/mL] | MIC (E. coli ATCC25922; [4]) [µg/mL] | MIC (K. pneumoniae ATCC13883; [5]) [µg/mL] | MIC (P. aeruginosa PAO1; [6]) [µg/mL] | MIC (P. aeruginosa ATCC27853; [7]) [µg/mL] | MIC (E. coli ATCC25922; [8]) [µg/mL] |
| --- | --- | --- | --- | --- | --- | --- | --- | --- |
| C[C@H](O)c1nccn1[C@@H](C#Cc1ccc(-c2ccc(N[C@H]3COC[C@@H]3O)cc2)cc1)CO [Compound 71, (3R,4S)-4-((4′-((S)-4-hydroxy-3-(2-((S)-1-hydroxyethyl)-1H-imidazol-1-yl)but-1-yn-1-yl)-[1,1′-biphenyl]-4-yl)amino)tetrahydrofuran-3-ol] | 4 (≈ 9.23 µM) | 4 (≈ 9.23 µM) | 4 (≈ 9.23 µM) | 2 (≈ 4.61 µM) | – | – | – | – |
| CNC(=O)[C@H]1C[C@@H](Oc2ccc(-c3ccc(C#C[C@@H](CO)n4ccnc4[C@H](C)O)cc3)cc2)C1 (racemic) [Compound 137, (rac-cis)-3-((4′-((S)-4-hydroxy-3-(2-((S)-1-hydroxyethyl)-1H-imidazol-1-yl)but-1-yn-1-yl)-[1,1′-biphenyl]-4-yl)oxy)-N-methylcyclobutane-1-carboxamide] | 2 (≈ 4.35 µM) | 0.5 (≈ 1.09 µM) | 1 (≈ 2.18 µM) | 0.5 (≈ 1.09 µM) | – | – | – | – |
| C[C@H](O)c1nccn1[C@@H](C#Cc1ccc(-c2ccc(O[C@H]3C[C@@H](C#N)C3)cc2)cc1)CO (racemic) [Compound 129, (rac-cis)-3-((4′-((S)-4-hydroxy-3-(2-((S)-1-hydroxyethyl)-1H-imidazol-1-yl)but-1-yn-1-yl)-[1,1′-biphenyl]-4-yl)oxy)cyclobutane-1-carbonitrile] | 1 (≈ 2.34 µM) | 2 (≈ 4.68 µM) | 4 (≈ 9.36 µM) | 0.5 (≈ 1.17 µM) | – | – | – | – |
| C[C@H](O)c1nccn1[C@@H](C#Cc1ccc(-c2ccc(NC[C@@H]3COC[C@H]3O)cc2)cc1)CO (racemic) [Compound 69, (rac-trans)-4-(((4′-((S)-4-hydroxy-3-(2-((S)-1-hydroxyethyl)-1H-imidazol-1-yl)but-1-yn-1-yl)-[1,1′-biphenyl]-4-yl)amino)methyl)tetrahydrofuran-3-ol] | 2 (≈ 4.47 µM) | 1 (≈ 2.23 µM) | 2 (≈ 4.47 µM) | 1 (≈ 2.23 µM) | – | – | – | – |
| C[C@H](O)c1nccn1[C@@H](C#Cc1ccc(-c2ccc(CC3CN(CC#N)C3)cc2)cc1)CO (single isomer, unassigned) [Compound 105] | 1 (≈ 2.27 µM) | 4 (≈ 9.08 µM) | 4 (≈ 9.08 µM) | 1 (≈ 2.27 µM) | – | – | – | – |
| C[C@H](O)c1nccn1[C@@H](C#Cc1ccc(-c2ccc(CO[C@H]3COC[C@@H]3O)cc2F)cc1)CO (single isomer, unassigned) [Compound 50] | 2 (≈ 4.29 µM) | 2 (≈ 4.29 µM) | 4 (≈ 8.57 µM) | 0.5 (≈ 1.07 µM) | – | – | – | – |
| CC(=O)N[C@H]1C[C@@H](c2ccc(-c3ccc(C#C[C@@H](CO)n4ccnc4[C@H](C)O)cc3)cc2)C1 (racemic) [Compound 135, N-((rac-cis)-3-(4′-((S)-4-hydroxy-3-(2-((S)-1-hydroxyethyl)-1H-imidazol-1-yl)but-1-yn-1-yl)-[1,1′-biphenyl]-4-yl)cyclobutyl)acetamide] | 2 (≈ 4.51 µM) | 2 (≈ 4.51 µM) | 2 (≈ 4.51 µM) | 0.5 (≈ 1.13 µM) | – | – | – | – |
| C[C@H](O)c1nccn1[C@@H](C#Cc1ccc(-c2ccc(O[C@H]3CCOC[C@@H]3O)c(F)c2)cc1)CO (single isomer, unassigned) [Compound 53] | 4 (≈ 8.57 µM) | 4 (≈ 8.57 µM) | 8 (≈ 17.1 µM) | 1 (≈ 2.14 µM) | – | – | – | – |
| C[C@H](O)c1nccn1[C@@H](C#Cc1ccc(-c2ccc(O[C@H]3CCOC[C@@H]3O)cc2)cc1)CO [Compound 73, (3S,4S)-4-((4′-((S)-4-hydroxy-3-(2-((S)-1-hydroxyethyl)-1H-imidazol-1-yl)but-1-yn-1-yl)-[1,1′-biphenyl]-4-yl)oxy)tetrahydro-2H-pyran-3-ol] | 2 (≈ 4.46 µM) | 2 (≈ 4.46 µM) | 8 (≈ 17.8 µM) | 2 (≈ 4.46 µM) | – | – | – | – |
| C[C@H](O)c1nccn1[C@@H](C#Cc1ccc(-c2ccc(OCC3(C)COC3)cc2)cc1)CO [Compound 80, (S)-2-(2-((S)-1-hydroxyethyl)-1H-imidazol-1-yl)-4-(4′-((3-methyloxetan-3-yl)methoxy)-[1,1′-biphenyl]-4-yl)but-3-yn-1-ol] | 2 (≈ 4.62 µM) | 2 (≈ 4.62 µM) | 4 (≈ 9.25 µM) | 0.5 (≈ 1.16 µM) | – | – | – | – |
| COC1CN(c2ccc(-c3ccc(C#C[C@@H](CO)n4ccnc4[C@H](C)O)cc3)cc2)C1 [Compound 110, (S)-2-(2-((S)-1-hydroxyethyl)-1H-imidazol-1-yl)-4-(4′-(3-methoxyazetidin-1-yl)-[1,1′-biphenyl]-4-yl)but-3-yn-1-ol] | 1.2 (≈ 2.87 µM) | > 32 | > 32 | 0.38 (≈ 0.91 µM) | – | – | – | – |
| C[C@H](O)c1nccn1[C@@H](C#Cc1ccc(-c2ccc(CO[C@@H]3COC[C@H]3O)cc2)cc1)CO (single isomer, unassigned) [Compound 123] | 2 (≈ 4.46 µM) | 2 (≈ 4.46 µM) | 4 (≈ 8.92 µM) | 2 (≈ 4.46 µM) | – | – | – | – |
| C[C@H](O)c1nccn1[C@@H](C#Cc1ccc(-c2ccc(N[C@H]3CCC[C@@H]3O)cc2)cc1)CO (single isomer, unassigned) [Compound 77] | 2 (≈ 4.63 µM) | 4 (≈ 9.27 µM) | 4 (≈ 9.27 µM) | 0.5 (≈ 1.16 µM) | – | – | – | – |
| C[C@H](O)c1nccn1[C@@H](C#Cc1ccc(-c2ccc(CN[C@@H]3COC[C@H]3O)cc2)cc1)CO (racemic) [Compound 65] | 4 (≈ 8.94 µM) | 2 (≈ 4.47 µM) | 4 (≈ 8.94 µM) | 2 (≈ 4.47 µM) | – | – | – | – |
| C[C@H](O)c1nccn1[C@@H](C#Cc1ccc(-c2ccc(O[C@H]3CCOC[C@@H]3O)cc2F)cc1)CO (single isomer, unassigned) [Compound 56] | 2 (≈ 4.29 µM) | 2 (≈ 4.29 µM) | 8 (≈ 17.1 µM) | 1 (≈ 2.14 µM) | – | – | – | – |
| C[C@H](O)c1nccn1[C@@H](C#Cc1ccc(-c2ccc(O[C@H]3COC[C@@H]3O)cc2F)cc1)CO (single isomer, unassigned) [Compound 2] | 2 (≈ 4.42 µM) | 2 (≈ 4.42 µM) | 4 (≈ 8.84 µM) | 1 (≈ 2.21 µM) | – | – | – | – |
| C[C@H](O)c1nccn1[C@@H](C#Cc1ccc(-c2ccc(OC3CN(CC#N)C3)cc2)cc1)CO [Compound 92, 2-(3-((4′-((S)-4-hydroxy-3-(2-((S)-1-hydroxyethyl)-1H-imidazol-1-yl)but-1-yn-1-yl)-[1,1′-biphenyl]-4-yl)oxy)azetidin-1-yl)acetonitrile] | – | – | – | – | 1.5 (≈ 3.39 µM) | 3 (≈ 6.78 µM) | 6 (≈ 13.6 µM) | 0.75 (≈ 1.69 µM) |
| C[C@H](O)c1nccn1[C@@H](C#Cc1ccc(-c2ccc(N3CC4(COC4)C3)cc2)cc1)CO (single isomer, unassigned) [Compound 75] | 1 (≈ 2.33 µM) | 2 (≈ 4.66 µM) | 4 (≈ 9.31 µM) | 0.25 (≈ 0.582 µM) | – | – | – | – |
| C[C@H](O)c1nccn1[C@@H](C#Cc1ccc(-c2ccc(O[C@@H]3COC[C@H]3OC(F)(F)F)cc2)cc1)CO (racemic) [Compound 124, (S)-2-(2-((S)-1-hydroxyethyl)-1H-imidazol-1-yl)-4-(4′-(((rac-trans)-4-(trifluoromethoxy)-tetrahydrofuran-3-yl)oxy)-[1,1′-biphenyl]-4-yl)but-3-yn-1-ol] | 4 (≈ 7.96 µM) | 8 (≈ 15.9 µM) | > 32 | 2 (≈ 3.98 µM) | – | – | – | – |
| C[C@H](O)c1nccn1[C@@H](C#Cc1ccc(-c2ccc(O[C@@H]3C[S+]([O-])C[C@H]3O)cc2)cc1)CO (single isomer, unassigned) [Compound 74] | 4 (≈ 8.57 µM) | 2 (≈ 4.29 µM) | 2 (≈ 4.29 µM) | 4 (≈ 8.57 µM) | – | – | – | – |
| C[C@H](O)c1nccn1[C@@H](C#Cc1ccc(-c2ccc(OC3CN(C(N)=O)C3)cc2)cc1)CO [Compound 94, 3-((4′-((S)-4-hydroxy-3-(2-((S)-1-hydroxyethyl)-1H-imidazol-1-yl)but-1-yn-1-yl)-[1,1′-biphenyl]-4-yl)oxy)azetidine-1-carboxamide] | – | – | – | – | 4 (≈ 8.96 µM) | 2 (≈ 4.48 µM) | 2 (≈ 4.48 µM) | 1 (≈ 2.24 µM) |
| C[C@H](O)c1nccn1[C@@H](C#Cc1ccc(-c2ccc(O[C@H]3C[C@@H](CNCC#N)C3)cc2)cc1)CO (racemic) [Compound 142, 2-((((rac-cis)-3-((4′-((S)-4-hydroxy-3-(2-((S)-1-hydroxyethyl)-1H-imidazol-1-yl)but-1-yn-1-yl)-[1,1′-biphenyl]-4-yl)oxy)cyclobutyl)methyl)amino)acetonitrile] | – | – | – | – | 2 (≈ 4.25 µM) | 2 (≈ 4.25 µM) | 4 (≈ 8.5 µM) | 1 (≈ 2.13 µM) |
| C[C@H](O)c1nccn1[C@@H](C#Cc1ccc(-c2ccc(O[C@@H]3COC[C@H]3O)cc2)c(F)c1)CO (racemic) [Compound 5, (rac-trans)-4-((2′-fluoro-4′-((S)-4-hydroxy-3-(2-((S)-1-hydroxyethyl)-1H-imidazol-1-yl)but-1-yn-1-yl)-[1,1′-biphenyl]-4-yl)oxy)tetrahydrofuran-3-ol] | 4 (≈ 8.84 µM) | 4 (≈ 8.84 µM) | 4 (≈ 8.84 µM) | 2 (≈ 4.42 µM) | – | – | – | – |
| C[C@H](O)c1nccn1[C@@H](C#Cc1ccc(-c2ccc(OC3CN(CCC#N)C3)cc2)cc1)CO [Compound 93, 3-(3-((4′-((S)-4-hydroxy-3-(2-((S)-1-hydroxyethyl)-1H-imidazol-1-yl)but-1-yn-1-yl)-[1,1′-biphenyl]-4-yl)oxy)azetidin-1-yl)propanenitrile] | – | – | – | – | 1 (≈ 2.19 µM) | 2 (≈ 4.38 µM) | 4 (≈ 8.76 µM) | 0.5 (≈ 1.1 µM) |
| C[C@H](O)c1nccn1[C@@H](C#Cc1ccc(-c2ccc(CO[C@@H]3COC[C@H]3O)cc2F)cc1)CO (single isomer, unassigned) [Compound 49] | 1 (≈ 2.14 µM) | 2 (≈ 4.29 µM) | 4 (≈ 8.57 µM) | 0.5 (≈ 1.07 µM) | – | – | – | – |
